{"source": "paper PMC9503778", "about": "“Targeted Isolation of Antibiotic Brominated Alkaloids from the Marine Sponge Pseudoceratina durissima Using Virtual Screening and Molecular Networking” (Marine Drugs, 2022)", "origin": "cited, not measured here", "key": {"[1]": {"system": "HIV", "parameters": "method as in earlier work", "details": "read-out: IC50 against HIV; cited from earlier work"}, "[2]": {"system": "Mediterranean fish species Blennius sphinx", "parameters": "method as in PMID 15018063", "details": "cited from earlier work"}}}
{"smiles": "COC1=C(Br)[C@H](O)[C@](O)(CC#N)C=C1Br", "note": "[Compound 1, (+)-aeroplysinin-1]", "values": [{"measurement": "IC50", "setting": "[1]", "result": 14.6, "unit": "µM"}]}
{"smiles": "COC1=C(Br)[C@H](O)[C@@]2(C=C1Br)CC(C(=O)NCCCCNC(=O)C1=NO[C@]3(C=C(Br)C(OC)=C(Br)[C@@H]3O)C1)=NO2", "note": "[Compound 2, aerothionin]", "values": [{"measurement": "feeding deterrent activity, Blennius sphinx", "setting": "[2]", "result": "significant feeding deterrent activity"}]}
